Laboratory results reported in patent publication US8546404B2, “Compounds that are ERK inhibitors” (Merck Sharp & Dohme, priority 2005, dated 2013).

Experiments:
[1] = Cassette Accelerating Rapid Rat Screen (CARRS), AUC during the first 6 hours; format: in vivo, Male Sprague-Dawley rats; settings: male, Sprague-Dawley, plasma, 10 mg/kg, PO, AUC during the first 6 hours (AUC6hr)
Experimental: The AUC (Area Under the Concentration-Time Curve During the First 6 Hours (AUC6hr) in Table 30 Below was Determined Using the Protocol of Cassette Accelerating Rapid Rat Screen (CARRS)
Animal Dosing and Sample Collection
Male Sprague-Dawley rats (Charles River, Co.) were pre-cannulated (femoral artery) in order to facilitate precise blood sampling times, and to reduce the stress on the animals caused by serial bleedings. Following an overnight fast, two rats were dosed orally with one compound at a dose of 10 mg/kg in a 5-mL/kg dose volume. Blood was collected into heparin-containing tubes serially from each animal at 0.5, 1, 2, 3, 4 and 6 h post-dosing and centrifuged to generate plasma. Approximately 100 μL of plasma were collected at the individual time points. The plasma samples were stored at −20° C. until analysis.
Plasma Sample and Standard Curve Preparation
A set of 12 rat plasma samples was generated for each NCE (i.e. 6 timepoints and n=2 rats). These 12 samples were pooled across the two rats at each timepoint to provide 6 pooled samples (one sample per time point) for each NCE. The pooled samples were assayed as cassettes of six (36 samples total) to provide data on the six compounds. The 50-μL aliquots of the 36 plasma samples were placed into individual wells of a 96-well plate. An additional compound (often a structural analog of the test compounds) was selected as the internal standard. A mini-calibration curve was prepared (three points plus a zero) for each compound assayed. Drug-free rat plasma was measured into 1-mL aliquots and each aliquot was spiked with known concentrations of the compounds to generate standards of the desired concentrations. The concentrations of the standards were chosen to bracket the expected concentration of the pooled samples based on historical data from previous studies on other compounds. For this work, the standards were set to contain concentrations of 25, 250 and 2500 ng NCE/mL plasma. The plasma standards were precipitated in duplicate along with the samples. Protein precipitation occurred after addition of 150 μL of acetonitrile containing the internal standard at a concentration of 1 ng/mL into each sample well using the Tomtec Quadra 96 system. The precipitated samples and standards were vortexed and centrifuged in the 96-well plate. Approximately 50-100 μL of the supernatant were removed and placed into a fresh 96-well plate using the Tomtec Quadra 96 system. A volume of 5-10 μL of the supernatant was used for analysis by HPLC-MS/MS. The mini-standard curve was run in duplicate, once before and once after the samples. Thus, a total of 14 study samples plus standards were analyzed per compound. In addition, solvent blanks were injected before and after each set of 14 and after the highest calibration standard for each compound; therefore, a total of 103 injections were made into each HPLC system for each set of six compounds. Multiple solvent blank injections could be made from a single well. Twelve solvent blank wells were designated in each 96-well plate. Thus, one batch (cassette) of six NCEs was prepared and assayed using one 96-well plate format.
All the compounds were analyzed using selected reaction monitoring (SRM) methods with LC/MS/MS instruments. Once the method development had been completed, the assay was quickly set up using a standard injection sequence template for the CARRS assay.

[2] = target: fully phosphorylated, active Mouse ERK2 protein (Mus musculus (Mouse), UniProt P63085); test: Active ERK2 Assay (IMAP format); format: biochemical; settings: read-out: AERK2 IC50
Experimental: Activated ERK2 activity was also determined in the IMAP assay format using the procedure outlined above. […] Reactions proceeded for 30 minutes before termination by addition of 60 μl IMAP detection beads in binding buffer. Plates were read as above after 30 minute binding equilibration.

Chain of fully phosphorylated, active Mouse ERK2 protein (P63085 whole entry): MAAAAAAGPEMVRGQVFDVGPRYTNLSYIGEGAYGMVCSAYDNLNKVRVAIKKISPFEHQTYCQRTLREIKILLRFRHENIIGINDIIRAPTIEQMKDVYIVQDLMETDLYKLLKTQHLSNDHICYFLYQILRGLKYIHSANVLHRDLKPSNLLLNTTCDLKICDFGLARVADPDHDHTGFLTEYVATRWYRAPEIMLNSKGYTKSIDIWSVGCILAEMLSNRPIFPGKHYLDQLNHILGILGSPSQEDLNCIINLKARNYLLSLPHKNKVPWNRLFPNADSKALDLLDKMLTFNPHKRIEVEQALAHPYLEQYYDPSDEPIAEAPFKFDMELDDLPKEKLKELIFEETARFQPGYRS

Row | SMILES | AUC [1] [µM·h] | IC50 [2] [nM]
1 | CO[C@@]1(C(=O)Nc2ccc3[nH]nc(-c4ccc(F)cc4)c3c2)CCN(CC(=O)N2CCC(c3ccc(-c4ncccn4)cc3)CC2)C1 [Example 479] | 2.2 | 9.1
2 | CCNc1nnc(-c2ccc(C3=CCN(C(=O)CN4CC[C@@](OC)(C(=O)Nc5ccc6[nH]nc(-c7ccc(F)cc7)c6c5)C4)CC3)c(F)c2)o1 [Example 622, 1-(2-{4-[4-(5-Ethylamino-[1,3,4]oxadiazol-2-yl)-2-fluoro-phenyl]-3,6-dihydro-2H-pyridin-1-yl}-2-oxo-ethyl)-3-methoxy-pyrrolidine-3-carboxylic acid [3-(4-fluoro-phenyl)-1 indazol-5-yl]-amide] | 1.13 | 5
3 | CO[C@@]1(C(=O)Nc2ccc3[nH]nc(-c4ccc(F)cc4)c3c2)CCN(CC(=O)N2CC=C(c3ccc(-c4ncccn4)cc3F)CC2)C1 [Example 825] | 1.1 | 20
4 | CS[C@@]1(C(=O)Nc2ccc3[nH]nc(-c4ccc(F)cc4)c3c2)CCN(CC(=O)N2CC=C(c3ccc(-c4ncccn4)cc3)CC2)C1 [Example 613] | 25.9 | 10
